Reference: patent publication US8377691B2 (priority 2006, dated 2013)
“Also recorded” adds a separate entry of the source. Read-outs that look alike come from different tables or passages of the source.

Columns and labels:
[1] = target: T1, Shaker(Δ6-46)T449V (Drosophila melanogaster, UniProt P08510, DEL6-46/T449V); assay type: biochemical; details: for Shaker activity: iberiotoxin (10 uM), margatoxin (10 uM); for lipoparticle Shaker activity: pre-treated with 10 nM toxin, duplicate experiments
T1 construct: made in house; host or cells: 293 / HEK-293 cells co-transfected with MLV Gag

[2] = assay type: biochemical; details: for response to 30 mM K2SO4 after prior disruption of the lipoparticle structure: gramicidin (1 uM) or melittin (5 uM)
[3] = target: Shaker (Drosophila melanogaster, UniProt P08510); details: cited from earlier work
[4] = target: T2, Shaker T449K mutant (Drosophila melanogaster, UniProt P08510, T449K); assay type: biochemical; details: 10 nM CHTX pre-treatment
T2 construct: made in house

[5] = target: T3, human KCNQ2/3 channel (Homo sapiens, UniProt O43525+O43526); assay type: biochemical
T3 construct: made in house

[6] = target: 5HT3a cation channel (Homo sapiens, UniProt P46098); assay type: biochemical
[7] = target: A/M2 Udorn72 (Influenza A virus, UniProt P0DOF5); assay type: biochemical; details: pH 4.5
[8] = target: M2 viral ion channel, Influenza A (Udorn/72) virions (Influenza A virus, UniProt P0DOF5); assay type: biochemical
[9] = test system: M2; details: cited from earlier work
[10] = target: A/M2/HK156/94 (Influenza A virus, UniProt O70632); experiment: biochemical; assay type: biochemical; details: for H+ transport across VLP membranes (fluorescence): pH 4.5
Chain of A/M2/HK156/94 (O70632 whole entry, looked up): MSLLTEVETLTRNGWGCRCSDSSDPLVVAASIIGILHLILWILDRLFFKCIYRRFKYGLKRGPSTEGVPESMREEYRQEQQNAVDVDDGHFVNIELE

Chain of 5HT3a cation channel (P46098 24-478): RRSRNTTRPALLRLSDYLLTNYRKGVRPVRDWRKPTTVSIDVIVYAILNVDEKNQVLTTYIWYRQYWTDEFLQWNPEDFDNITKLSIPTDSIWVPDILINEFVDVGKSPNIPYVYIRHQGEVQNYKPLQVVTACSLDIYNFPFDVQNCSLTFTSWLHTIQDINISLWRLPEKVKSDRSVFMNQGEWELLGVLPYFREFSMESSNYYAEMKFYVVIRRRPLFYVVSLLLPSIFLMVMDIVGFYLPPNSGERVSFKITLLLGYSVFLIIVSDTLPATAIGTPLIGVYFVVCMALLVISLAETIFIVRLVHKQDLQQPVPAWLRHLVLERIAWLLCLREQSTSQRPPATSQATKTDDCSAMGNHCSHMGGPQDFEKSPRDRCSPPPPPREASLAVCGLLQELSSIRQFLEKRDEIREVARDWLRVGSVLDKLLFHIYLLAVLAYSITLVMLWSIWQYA
Chain of A/M2 Udorn72 (P0DOF5 whole entry, looked up): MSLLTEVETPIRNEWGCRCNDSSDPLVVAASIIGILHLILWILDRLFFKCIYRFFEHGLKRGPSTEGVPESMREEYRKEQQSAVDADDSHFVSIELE
T1 sequence (P08510 with tags, fused parts or gaps DEL6-46/T449V): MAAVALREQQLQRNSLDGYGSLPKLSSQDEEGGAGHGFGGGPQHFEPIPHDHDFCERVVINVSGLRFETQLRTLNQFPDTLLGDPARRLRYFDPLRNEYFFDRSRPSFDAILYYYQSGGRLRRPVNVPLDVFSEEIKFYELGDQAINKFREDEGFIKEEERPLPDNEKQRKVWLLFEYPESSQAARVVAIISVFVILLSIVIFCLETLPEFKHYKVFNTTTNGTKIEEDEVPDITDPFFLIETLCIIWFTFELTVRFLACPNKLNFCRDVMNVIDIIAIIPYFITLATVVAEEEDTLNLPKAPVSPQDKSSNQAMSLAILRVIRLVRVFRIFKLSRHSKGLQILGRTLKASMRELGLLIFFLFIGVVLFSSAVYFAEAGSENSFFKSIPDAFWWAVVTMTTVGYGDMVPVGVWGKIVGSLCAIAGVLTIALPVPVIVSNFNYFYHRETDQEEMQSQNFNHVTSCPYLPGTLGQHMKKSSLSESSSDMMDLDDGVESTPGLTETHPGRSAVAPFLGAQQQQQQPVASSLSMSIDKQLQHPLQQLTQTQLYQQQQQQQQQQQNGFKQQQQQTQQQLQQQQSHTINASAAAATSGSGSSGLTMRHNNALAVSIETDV
T2 sequence (P08510 whole entry T449K): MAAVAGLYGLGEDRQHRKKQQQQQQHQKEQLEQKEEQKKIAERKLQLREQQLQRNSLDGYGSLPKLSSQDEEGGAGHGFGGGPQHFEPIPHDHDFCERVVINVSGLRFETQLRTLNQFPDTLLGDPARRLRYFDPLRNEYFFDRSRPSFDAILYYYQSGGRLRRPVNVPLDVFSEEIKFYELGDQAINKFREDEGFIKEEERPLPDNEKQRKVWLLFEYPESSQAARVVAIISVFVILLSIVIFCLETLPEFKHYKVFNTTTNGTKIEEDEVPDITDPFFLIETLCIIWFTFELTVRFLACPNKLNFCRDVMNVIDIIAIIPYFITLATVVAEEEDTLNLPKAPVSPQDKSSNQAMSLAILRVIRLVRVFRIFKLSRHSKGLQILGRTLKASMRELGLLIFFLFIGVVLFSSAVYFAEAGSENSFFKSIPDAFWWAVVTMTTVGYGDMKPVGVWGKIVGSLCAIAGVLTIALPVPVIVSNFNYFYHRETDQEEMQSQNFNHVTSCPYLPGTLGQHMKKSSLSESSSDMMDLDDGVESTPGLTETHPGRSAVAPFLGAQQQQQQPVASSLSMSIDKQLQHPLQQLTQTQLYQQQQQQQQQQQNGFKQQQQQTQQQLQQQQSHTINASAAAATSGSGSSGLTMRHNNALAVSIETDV
Chain of M2 viral ion channel, Influenza A (Udorn/72) virions (P0DOF5 whole entry, looked up): as the sequence (P0DOF5 whole entry, looked up) above
T3 sequence (O43526 whole entry): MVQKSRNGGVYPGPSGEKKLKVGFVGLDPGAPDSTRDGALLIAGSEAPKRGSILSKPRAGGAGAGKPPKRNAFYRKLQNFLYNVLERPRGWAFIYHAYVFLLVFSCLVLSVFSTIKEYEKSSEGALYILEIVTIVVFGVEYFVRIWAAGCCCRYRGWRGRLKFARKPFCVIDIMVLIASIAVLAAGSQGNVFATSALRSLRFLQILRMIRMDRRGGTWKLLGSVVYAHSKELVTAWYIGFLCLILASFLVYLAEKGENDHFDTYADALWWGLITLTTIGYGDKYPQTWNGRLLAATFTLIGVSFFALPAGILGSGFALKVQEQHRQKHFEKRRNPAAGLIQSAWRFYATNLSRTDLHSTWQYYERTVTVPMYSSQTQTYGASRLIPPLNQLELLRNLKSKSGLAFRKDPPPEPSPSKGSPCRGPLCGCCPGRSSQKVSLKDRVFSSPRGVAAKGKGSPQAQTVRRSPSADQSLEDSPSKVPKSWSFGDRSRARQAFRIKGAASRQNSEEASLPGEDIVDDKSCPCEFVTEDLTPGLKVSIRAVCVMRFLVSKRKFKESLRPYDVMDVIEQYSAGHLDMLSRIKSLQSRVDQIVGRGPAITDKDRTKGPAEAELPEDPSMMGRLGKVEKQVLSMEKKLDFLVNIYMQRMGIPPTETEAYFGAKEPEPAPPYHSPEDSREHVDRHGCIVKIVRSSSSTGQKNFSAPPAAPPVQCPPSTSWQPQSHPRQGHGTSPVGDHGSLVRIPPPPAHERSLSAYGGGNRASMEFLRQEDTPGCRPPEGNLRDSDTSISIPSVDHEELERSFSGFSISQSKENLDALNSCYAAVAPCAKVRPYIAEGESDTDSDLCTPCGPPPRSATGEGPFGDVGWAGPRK
T3 sequence (O43525 whole entry): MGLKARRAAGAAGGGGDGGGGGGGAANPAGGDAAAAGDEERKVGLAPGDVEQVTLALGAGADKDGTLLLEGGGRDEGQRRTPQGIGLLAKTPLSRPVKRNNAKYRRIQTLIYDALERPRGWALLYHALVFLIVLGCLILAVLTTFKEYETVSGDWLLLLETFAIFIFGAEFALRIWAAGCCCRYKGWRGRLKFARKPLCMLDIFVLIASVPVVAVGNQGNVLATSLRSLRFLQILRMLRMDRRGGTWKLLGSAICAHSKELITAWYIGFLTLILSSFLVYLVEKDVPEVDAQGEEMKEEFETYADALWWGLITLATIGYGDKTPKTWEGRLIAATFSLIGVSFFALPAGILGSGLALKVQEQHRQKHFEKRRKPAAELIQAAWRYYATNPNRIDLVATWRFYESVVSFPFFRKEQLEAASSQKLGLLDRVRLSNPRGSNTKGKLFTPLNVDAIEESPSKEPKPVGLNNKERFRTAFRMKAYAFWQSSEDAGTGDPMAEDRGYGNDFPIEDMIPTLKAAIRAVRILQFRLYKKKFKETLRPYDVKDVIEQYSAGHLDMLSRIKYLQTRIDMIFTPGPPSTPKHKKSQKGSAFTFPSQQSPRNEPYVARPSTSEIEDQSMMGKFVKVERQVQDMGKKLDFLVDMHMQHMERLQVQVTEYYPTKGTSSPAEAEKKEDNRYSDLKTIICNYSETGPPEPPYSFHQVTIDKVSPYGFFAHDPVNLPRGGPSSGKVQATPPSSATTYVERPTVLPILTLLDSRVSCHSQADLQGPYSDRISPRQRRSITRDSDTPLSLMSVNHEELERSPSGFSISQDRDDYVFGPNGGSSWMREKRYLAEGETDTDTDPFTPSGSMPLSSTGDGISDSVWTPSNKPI
Chain of Shaker (P08510 whole entry): as the sequence (P08510 whole entry T449K) above, with K449T counted along it

Question: Which Shaker activity [1] does the source give for “margatoxin (TIINVKCTSPKQCLPPCKAQFGQSAGAKCMNGKCKCYPH; UniProt P40755 1-39, looked up)” here?
Answer: did not inhibit Shaker activity

Question: What about the “lipoparticle Shaker activity” value ([1]; 30 mM K2SO4) of the same compound?
Answer: do not influence

Question: With gramicidin as the compound, how does the “response to 30 mM K2SO4 after prior disruption of the lipoparticle structure” value [2] read?
Answer: eliminated the response

Question: For charybdotoxin [CHTX], which “CHTX inhibition of Shaker in cells reported in the literature” value [3] is on record?
Answer: ~3.6 nM

Question: And the “Shaker conductance of K+ across lipoparticle membranes” value ([1]; 10 nM CHTX pre-incubation, 30 mM K2SO4)?
Answer: completely inhibited

Question: And the “inhibition of the fluorescent signal over a concentration range” value ([1]; CHTX 100 pM to 10 nM, 10 ug Shaker plasmid)?
Answer: concentration-dependent inhibition

Question: What about the “low concentration at which inhibition of membrane depolarization was evident” value ([1]; lipoparticles produced using 10 ug Shaker plasmid, 30 mM K2SO4) of the same compound?
Answer: 0.1 nM

Question: What about the “effect of channel inhibitor on valinomycin-mediated K+ movement (specificity control)” value ([2]; null-lipoparticles pre-treated with 1 uM valinomycin, CHTX up to 10 nM, tubocurarine) of the same compound?
Answer: did not influence; also recorded: had no effect

Question: What about the “fluorescent signal on K+ addition” value [4] of the same compound?
Answer: capable of inhibiting the fluorescent signal; also recorded: inhibition

Question: With `CC[C@H](C)[C@H](NC(=O)CN)C(=O)NCC(=O)N[C@@H](C)C(=O)N[C@H](C(=O)N[C@@H](CC(C)C)C(=O)N[C@@H](CCCCN)C(=O)N[C@H](C(=O)N[C@@H](CC(C)C)C(=O)N[C@H](C(=O)N[C@H](C(=O)NCC(=O)N[C@@H](CC(C)C)C(=O)N1CCC[C@H]1C(=O)N[C@@H](C)C(=O)N[C@@H](CC(C)C)C(=O)N[C@H](C(=O)N[C@@H](CO)C(=O)N[C@@H](Cc1c[nH]c2ccccc12)C(=O)N[C@H](C(=O)N[C@@H](CCCCN)C(=O)N[C@@H](CCCNC(=N)N)C(=O)N[C@@H](CCCCN)C(=O)N[C@@H](CCCNC(=N)N)C(=O)N[C@@H](CCC(N)=O)C(=O)N[C@@H](CCC(N)=O)C(N)=O)[C@@H](C)CC)[C@@H](C)CC)[C@@H](C)O)[C@@H](C)O)C(C)C)C(C)C` [melittin] as the compound, how does the “response to 30 mM K2SO4 after prior disruption of the lipoparticle structure” value [2] read?
Answer: eliminated the response

Question: For `[Ba+2].[Cl-].[Cl-]` [BaCl2], which “fluorescent signal on K+ addition” value ([5]; 20 mM BaCl2) is on record?
Answer: inhibition

Question: What about the “fluorescent signal on K+ addition” value ([5]; 120 mM BaCl2 pre-treatment) of the same compound?
Answer: capable of inhibiting the fluorescent signal

Question: With `NCCc1c[nH]c2ccc(O)cc12` [serotonin] as the compound, how does the “dependence of the fluorescent signal on the ligand” value [6] read?
Answer: dependent upon the presence; also recorded: omission of the ion channel ligand, serotonin, from the assay mix resulted in no change in fluorescence intensity

Question: With `NC12CC3CC(CC(C3)C1)C2` [amantadine] as the compound, how does the “H+ transport fluorescence signal” value [7] read?
Answer: inhibited the fluorescent response; also recorded: abrogated the subsequent movement of H^+; also recorded: completely abrogated

Question: And the “fluorescent signal (membrane potential response) on low pH challenge” value [8]?
Answer: attenuated the fluorescent signal in a dose-dependent fashion; also recorded: inhibited

Question: What about the IC50 ([9]; other measures of M2 function, such as plaque assay, read-out: IC50 reported in the literature) of the same compound?
Answer: 1000 to 10000 nM

Question: And the “Hillslope of inhibition curve” value [10]?
Answer: −0.71

Question: And the IC50 [10]?
Answer: 980 nM

Question: What about the “mean change in fluorescence resulting from MES addition” value [10] of the same compound?
Answer: 314±206

Question: What about the “H+ transport across VLP membranes (fluorescence)” value [10] of the same compound?
Answer: abrogated the subsequent movement of H^+; also recorded: in the absence, but not in the presence of amantadine

Question: Which Shaker activity [1] does the source give for “iberiotoxin (QFTDVDCSVSKECWSVCKDLFGVDRGKCMGKKCRCYQ; UniProt P24663 1-37, looked up)” here?
Answer: did not inhibit Shaker activity

Question: What about the “lipoparticle Shaker activity” value ([1]; 30 mM K2SO4) of the same compound?
Answer: do not influence

Question: With `CC(C)[C@@H]1NC(=O)[C@H](C)OC(=O)[C@@H](C(C)C)NC(=O)[C@@H](C(C)C)OC(=O)[C@H](C(C)C)NC(=O)[C@H](C)OC(=O)[C@@H](C(C)C)NC(=O)[C@@H](C(C)C)OC(=O)[C@H](C(C)C)NC(=O)[C@H](C)OC(=O)[C@@H](C(C)C)NC(=O)[C@@H](C(C)C)OC1=O` [Valinomycin, valinomycin] as the compound, how does the “fluorescent signal on K+ exposure (normalized to baseline)” value ([2]; valinomycin-treated null-lipoparticles, twelve replicates, microplate, mean+/−standard deviation, untreated 1.023+/−0.009) read?
Answer: 1.347+/−0.036

Question: Which “fluorescent signal on Na+ addition” value [6] does the source give for `COc1cc2c3cc1Oc1cc(ccc1O)C[C@@H]1c4c(cc(OC)c(O)c4Oc4ccc(cc4)C[C@@H]3N(C)CC2)CC[N+]1(C)C` [tubocurarine] here?
Answer: capable of inhibiting the fluorescent signal; also recorded: inhibition

Question: With `CC(N)C12CC3CC(CC(C3)C1)C2` (stereo not drawn) [rimantadine] as the compound, how does the “H+ transport fluorescence signal” value [7] read?
Answer: inhibited the fluorescent response; also recorded: abrogated the subsequent movement of H^+; also recorded: completely abrogated

Question: And the “potency relative to amantadine reported in the literature” value ([9]; more potent than amantadine)?
Answer: approximately 10 times

Question: What about the “Hillslope of inhibition curve” value [10] of the same compound?
Answer: −1.1

Question: What about the IC50 [10] of the same compound?
Answer: 180 nM

Question: And the “mean change in fluorescence resulting from MES addition” value [10]?
Answer: −432±167

Question: And the “H+ transport across VLP membranes (fluorescence)” value [10]?
Answer: abrogated the subsequent movement of H^+
